In patent US9944967B2, “Methods for the site-selective introduction of halogen into natural products” (THE REGENTS OF THE UNIVERSITY OF CALIFORNIA, priority 2013, dated 2018):

How the values were obtained:
DEBSMod2/AT^0 = target: T1, DEBSMod2/AT^0 (Saccharopolyspora erythraea, UniProt Q03131, S2598A); assay: Triketide lactone production using DEBSMod2/AT0; assay type: biochemical; details: overnight; for conversion of NDK-SNAC to R-TKL: NDK-SNAC (500 μM), respective acyl-CoA regeneration system
T1 construct: MBP (N); His6 (C); His6 (N); made in house; host or cells: E. coli BAP1 (pRARE2 co-expressed)
Method: All assay mixtures contained 400 mM sodium phosphate, pH 7.5, phosphoenolpyruvate (20 mM), TCEP (5 mM), magnesium chloride (5 mM), ATP (2.5 mM), pyruvate kinase (18 U/mL), myokinase (10 U/mL), methylmalonyl-CoA epimerase (5 μM), CoA (1 mM), MatB (20 μM), NDK-SNAC (500 μM) and either methylmalonate, fluoromalonate or malonate (5 mM) as appropriate. Reactions were initiated by addition of DEBSMod2/AT^0 (10 μM) and incubated at 37° C. overnight. Aliquots were removed, quenched by addition of HCl to 1 M, then processed and analyzed as described above.

DEBSMod6+TE [1] = assay: Time-course of TKL and F-TKL formation by DEBSMod6+TE with substrate regeneration; assay type: biochemical
Method: Assay and preparative mixtures contained 400 mM sodium phosphate, pH 7.5, phosphoenolpyruvate (50 mM), TCEP (5 mM), magnesium chloride (10 mM), ATP (2.5 mM), pyruvate kinase (27 U/mL), myokinase (10 U/mL), CoA (0.5 mM), methylmalonyl-CoA epimerase (5 μM), MatB (40 μM or as specified) and fluoro- or methylmalonate (10-20 mM). […] This mixture was incubated at 37° C. for 30-45 min and then initiated by addition of the N-acetylcysteamine thioester of (2S,3R)-2-methyl-3-hydroxypentanoic acid (NDK-SNAC, 1-10 mM) (Cane, D. E., et al., J. Am. Chem., 115:527-535 (1993)) and DEBSMod6+TE (10 μM). Aliquots (35 μL) were removed and quenched by addition of 70% perchloric acid (1.75 μL). […] The supernatant was removed and analyzed on a Zorbax Eclipse XDB C-18 column (3.5 μm, 3×150 mm, 35° C., Agilent) using a linear gradient from 0 to 40% acetonitrile over 14 min with 0.1% formic acid as the aqueous mobile phase after an initial hold at 0% acetonitrile for 30 s (0.8 mL/min) Products were monitored using an Agilent G1315D diode array detector (TKL, A260 nm or A275 nm, F-TKL, A247 nm, NDK-SNAC; A260 nm). […] For absolute quantification, each analyte was compared to an external standard curve. […] The concentrations of TKL and H-TKL were determined by ^1H NMR in D2O using the ERETIC method against an external standard of diethylfluoromalonate (75 mM).

DEBSMod6+TE [2] = assay: Triketide lactone production under competitive conditions; assay type: biochemical
Method: For reactions with substrate regeneration, assay mixtures contained 400 mM sodium phosphate, pH 7.5, phosphoenolpyruvate (50 mM), TCEP (5 mM), magnesium chloride (10 mM), ATP (2.5 mM), pyruvate kinase (27 U/mL), myokinase (10 U/mL), methylmalonyl-CoA epimerase (5 μM), NDK-SNAC (15 mM) and DEBSMod6+TE (10 μM). Reactions were initiated by simultaneous addition of MatB (40 μM), fluoromalonyl-CoA (1 μM) and malonyl-CoA (1 μM) and incubated at 37° C. for 18-20 h. Protein was removed by filtration through a 3 kDa NWCO membrane at 14,000×g and the filtrate was analyzed by LC-MS. Standards of H-TKL and F-TKL were prepared using a mock reaction mixture (acyl-CoAs replaced by CoAs and NDK-SNAC replaced by N-acetyl cysteamine) as diluent. TKLs were quantified using single ion monitoring, H-TKL in positive mode and F-TKL in negative mode. For reactions without substrate regeneration, assay mixtures contained 400 mM sodium phosphate, pH 7.5, TCEP (5 mM), methylmalonyl-CoA epimerase (5 μM), NDK-SNAC (3 mM) and DEBSMod6+TE (10 μM). Reactions were initiated by adding fluoromalonyl-CoA (1 mM) and malonyl-CoA (1 mM) simultaneously. The mixtures were incubated at 37° C. for 20 h, then quenched, processed and analyzed as described above. H-TKL was monitored using an Agilent 6130 MS operating in positive ion mode, and the limit of detection was verified by spiking samples to 50 nM H-TKL using a standard solution.

[3] = target: T2, acetyl-CoA carboxylase (ACCase) (Escherichia coli, UniProt P0A9Q5+P0ABD5); assay: Acetyl-CoA carboxylase discontinuous HPLC assay with AckA-Pta; assay type: biochemical, E. coli
T2 construct: made in house; host or cells: E. coli BL21(de3)T1R
Method: ACCase activity was measured using a discontinuous HPLC assay. Assays were performed at 30° C. in a total volume of 200 μL containing 50 mM HEPES, pH 7.5, TCEP (10 mM), bovine serum albumin (3 mg/mL), CoA (0.5 mM), ATP (2.5 mM), magnesium chloride (10 mM), sodium bicarbonate (75 mM), acetate or fluoroacetate (10 mM), phosphoenolpyruvate (10 mM), pyruvate kinase (4 U), AckA (0.1 μM), Pta (10 μM) and ACCase (15 μM). The pH of the buffer remained unchanged after addition of sodium bicarbonate. ACCase stock solution was prepared by pre-mixing the protein subunits at equimolar ratio (85 μM) except for AccB, which was added at 1.5-fold molar excess. The reaction was initiated with addition of ATP. Aliquots (20 μL) were removed and quenched by the addition of 70% perchloric acid (1 μL). Insoluble material was removed by centrifugation and the supernatant was analyzed on an Agilent 1200 or 1290 HPLC system on a LiChroCART 250-4 Purospher RP-18e column (5 μm, 4.6×250 mm, Millipore) and monitored at A260 nm. For reactions with acetate, a linear gradient from 2 to 20% acetonitrile over 10 min with 5 mM sodium phosphate and 5 mM sodium citrate with 0.1% trifluoroacetic acid, pH 4.6 as the aqueous mobile phase (1 mL/min) was used to analyze the reaction. […]

DEBSMod6+TE [4] = target: T3, DEBSMod6+TE (Saccharopolyspora erythraea, UniProt Q03133); assay: Acyl-CoA hydrolysis by DEBSMod6+TE (DTNB assay); assay type: biochemical; details: for v0 (rate of acyl-CoA hydrolysis): DEBSMod6 + TE (1 μM), acyl-CoA (500 μM), mean ± s.d. (n = 4); for Relative rate of acyl-CoA hydrolysis: relative to methylmalonyl-CoA
T3 construct: the sixth module of DEBS, including the terminal thioesterase (DEBSMod6+TE); His6 (C); made in house; host or cells: E. coli BAP1
Method: Hydrolytic activity of DEBSMod6+TE was measured by monitoring the reaction of free CoA with DTNB as described previously (Huang, F., et al., Chem. Biol., 13:475-484 (2006)). Assays were performed at 37° C. in a total volume of 200 μL containing 400 mM sodium phosphate, pH 7.5, 500 μM DTNB, and DEBSMod6+TE (1 μM). Reactions were initiated by addition of acyl-CoA (0.5 mM) and monitored at 412 nm in a Beckman Coulter DU-800 spectrophotometer. Release of CoA was quantified by comparison to a standard curve (5-100 μM).

NphT7 = target: T4, NphT7 (Streptomyces sp., UniProt D7URV0); assay: Acetoacetyl-CoA synthase NphT7 NADPH-coupled assay with PhaB; assay type: biochemical; details: NphT7 reaction product
T4 construct: made in house; host or cells: E. coli BL21(de3)T1R
T4 sequence (D7URV0 1-329): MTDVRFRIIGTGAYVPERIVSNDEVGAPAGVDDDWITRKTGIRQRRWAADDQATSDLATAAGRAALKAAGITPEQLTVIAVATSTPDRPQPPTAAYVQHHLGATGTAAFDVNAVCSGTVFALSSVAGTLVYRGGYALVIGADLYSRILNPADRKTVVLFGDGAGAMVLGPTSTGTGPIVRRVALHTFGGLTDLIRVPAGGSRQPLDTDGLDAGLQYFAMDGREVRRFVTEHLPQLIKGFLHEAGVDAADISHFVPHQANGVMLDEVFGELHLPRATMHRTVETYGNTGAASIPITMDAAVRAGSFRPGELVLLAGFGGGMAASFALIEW
Method: NphT7 activity was measured using a NADPH-coupled assay with PhaB. Assays were performed at 30° C. in a total volume of 500 μL containing 50 mM HEPES, pH 7.5, NADPH (160 μM), acetyl-CoA (200 μM), PhaB (0.05 mg/mL), NphT7 (0.2 μM for malonyl-CoA; 0.5 μM for fluoromalonyl-CoA) and malonyl-CoA (5-150 μM) or fluoromalonyl-CoA (5-200 μM). Reactions were initiated with the addition of malonyl- or fluoromalonyl-CoA and monitored at 340 nm in an Agilent 8453 diode array spectrophotometer. The PhaB-coupled assay was tested both by doubling NphT7, which doubled the initial velocity with both the fluorinated and non-fluorinated substrates, and also by doubling the amount of PhaB, which led to no difference in initial velocity.

[5] = MatB regeneration, equimolar malonyl-CoA and fluoromalonyl-CoA, mean ± s.d. (n = 3)

## CC[C@H]1OC(=O)[C@@H](F)C(=O)[C@H]1C [F-TKL, (2S,4S,5R)-2-fluoro-4-methyl-3-oxo-5-hydroxy-n-heptanoic Acid δ-lactone]
DEBSMod2/AT^0
  conversion of NDK-SNAC to R-TKL: 43%
DEBSMod6+TE [1]; 10 mM NDK-SNAC
  Initial rate of F-TKL formation: 0.14 h⁻¹
DEBSMod6+TE [2]; MatB regeneration
  [F-TKL]/[H-TKL]: 10.3 ± 0.1
DEBSMod6+TE [2]; [5]
  [F-TKL]: 7,390 ± 520 nM
DEBSMod6+TE [2]; No regeneration
  [F-TKL]/[H-TKL]: >9
DEBSMod6+TE [2]; No regeneration, equimolar malonyl-CoA and fluoromalonyl-CoA (1 mM), mean ± s.d. (n = 3)
  [F-TKL]: 450 ± 60 nM
DEBSMod6+TE [2]; direct competition, equimolar (1 mM) fluoromalonyl-CoA and malonyl-CoA
  fold more F-TKL than H-TKL produced: at least 10 fold

## O=C(O)CF [Fluoroacetate, reference compound]
[3]; one-pot AckA-Pta/ACCase carboxylation
  fold slower rate of conversion compared to acetate: 4.5 fold

## CCC1OC(=O)CC(O)C1C (stereo not drawn) [H-TKL, 2-desmethyltriketide lactone, reference compound]
DEBSMod2/AT^0
  conversion of NDK-SNAC to R-TKL: < 0.01%
DEBSMod6+TE [2]; [5]
  [H-TKL]: 720 ± 50 nM
DEBSMod6+TE [2]; No regeneration, equimolar malonyl-CoA and fluoromalonyl-CoA (1 mM)
  [H-TKL]: <50 nM

## CC(C)(COP(=O)(O)OP(=O)(O)OC[C@H]1O[C@@H](n2cnc3c(N)ncnc32)[C@H](O)[C@@H]1OP(=O)(O)O)[C@@H](O)C(=O)NCCC(=O)NCCSC(=O)CC(=O)O [Malonyl-CoA]
DEBSMod6+TE [4]
  v0 (rate of acyl-CoA hydrolysis): 6.1 ± 0.4 µM/min
  Relative rate of acyl-CoA hydrolysis: 4.5

## CC(C(=O)O)C(=O)SCCNC(=O)CCNC(=O)[C@H](O)C(C)(C)COP(=O)(O)OP(=O)(O)OC[C@H]1O[C@@H](n2cnc3c(N)ncnc32)[C@H](O)[C@@H]1OP(=O)(O)O (stereo partly drawn) [Methylmalonyl-CoA]
DEBSMod6+TE [4]
  v0 (rate of acyl-CoA hydrolysis): 1.36 ± 0.05 µM/min
  Relative rate of acyl-CoA hydrolysis: 1.0

## CC[C@@H](O)[C@H](C)C(=O)SCCNC(C)=O [NDK-SNAC, (2S,3R)-2-methyl-3-hydroxypentanoyl-N-acetylcysteamine thioester]
DEBSMod2/AT^0; fluoromalonyl-CoA regeneration system
  NDK-SNAC consumed: 82%
DEBSMod2/AT^0; malonyl-CoA regeneration system
  NDK-SNAC consumed: 100%

## CC[C@H]1OC(=O)[C@H](C)C(=O)[C@H]1C [TKL, (2R,4S,5R)-2,4-Dimethyl-3-oxo-5-hydroxy-n-heptanoic acid β-lactone, reference compound]
DEBSMod2/AT^0
  conversion of NDK-SNAC to R-TKL: all
DEBSMod6+TE [1]; 2.5 mM NDK-SNAC
  Initial rate of TKL formation: 1.5 min⁻¹

## CC(=O)C(F)C(=O)SCCNC(=O)CCNC(=O)[C@H](O)C(C)(C)COP(=O)(O)OP(=O)(O)OC[C@H]1O[C@@H](n2cnc3c(N)ncnc32)[C@H](O)[C@@H]1OP(=O)(O)O (stereo partly drawn) [acetofluoroacetyl-CoA]
NphT7
  stability under the assay conditions: degrade fairly rapidly

## CC(C)(COP(=O)(O)OP(=O)(O)OC[C@H]1O[C@@H](n2cnc3c(N)ncnc32)[C@H](O)[C@@H]1OP(=O)(O)O)[C@@H](O)C(=O)NCCC(=O)NCCSC(=O)CF [fluoroacetyl-CoA]
[3]; judged from overall extent of reaction
  covalent inactivation of the ACCase: not significant
